Where a name gives a salt, the structure may show the parent alone.
Columns and labels:
[1] = 23° C., pH=4.4; cited from earlier work
[2] = Solubility of Asenapine maleate in saturated solution (Funke et al., literature); assay type: physicochemical; conditions: water (saturated solution), thermodynamic from solid, converted from the maleate salt value at 23° C., pH=4.4, read-out: free base solubility
Source text: Certain crystalline addition salts of Asenapine, for instance a fumarate (EP 0569096), salts with sulfonic acids (WO 98/54186), and a pamoate or hemipamoate salt (EP 0569096), are described in the literature. The pamoate salt is disclosed to be amorphous and the hemipamoate salt is a mixture of amorphous and crystalline phase, wherein the palmitate is described as oil. The marketed form is the maleate salt, which is disclosed to exist in polymorphic forms (WO 2006/106135). The known Asenapine salts have a low solubility in water.

[3] = Water uptake by dynamic vapor absorption; assay type: physicochemical
Description: Asenapine HCl dihydrate of the invention can absorb about 1.5% of additional water at 95% relative humidity at 25° C. and most of the water uptake occurs above 80% relative humidity as shown by dynamic vapor absorption.

[4] = Aqueous solubility by suspension equilibration in water, concentration in filtrate by HPLC; assay type: physicochemical
Description: The aqueous solubility was determined after 40 hours of suspension equilibration at 25° C. Thereafter, the suspension was filtered and the concentration in the liquid phase was determined by HPLC. The excellent solubility of the Asenapine hydrochloride dihydrate of the invention may render the salt to an excellent alternative to known salts of Asenapine, especially for a fast dissolving formulation.
An HPLC instrument from TSP (UV3000, AS3000, P4000, SCM1000 using software version 4.1) was used in combination with a column from Waters (XTerra MS 018, 4.6×100 mm, 5 μm (CC01A)). The mobile phase A was H2O/ACN 95:5 with 0.1% TFA, and mobile phase B was H2O/ACN 5:95 with 0.1% TFA. The reference concentration was 0.09 mg/mL. The Asenapine peak appeared at a retention time.
4.0-4.1 min. The method was isocratic with 70% mobile phase A and 30% mobile phase B at 0 min and after 10 min at a flow of 1.0 mL/min. The injection volume was 10 μL and the detection wavelength 202 nm.
The aqueous solubility of Asenapine salts is determined in water after 48 hours of suspension equilibration at 25° C. 200 mg of Asenapine hydrochloride is suspended in 1.5 ml of bidistilled water and the resulting suspension is placed on a laboratory shaker at 500 rpm. Thereafter, the suspension is filtered and the concentration in the liquid phase was determined by HPLC as described above. […]

CN1C[C@@H]2c3ccccc3Oc3ccc(Cl)cc3[C@H]2C1 (relative stereo) [maleate salt of Asenapine, trans-5-chloro-2-methyl-2,3,3a,12b-tetrahydro-1H-dibenz[2,3:6,7]oxepino[4,5-c]pyrrole]
concentration of saturated solution [1]: 5800 µg/mL | solubility [2]: ~4.1 mg/mL

CN1C[C@H]2c3ccccc3Oc3ccc(Cl)cc3[C@@H]2C1 (relative stereo) [Asenapine HCl dihydrate, trans-5-chloro-2-methyl-2,3,3a,12b-tetrahydro-1H-dibenz[2,3:6,7]oxepino[4,5-c]pyrrole]
additional water absorbed ([3]; 95% relative humidity at 25° C., most uptake above 80% relative humidity): about 1.5% | hygroscopicity ([3]; dynamic vapor absorption, 25° C.): not, or only very slightly hygroscopic | solubility at 2 days ([4]; pH 4, thermodynamic from solid, 25° C., 600 rpm, two days of equilibration, at a pH of 4.0, read-out: aqueous solubility (concentration of Asenapine in the filtered solution by HPLC)): 24.2 mg/mL | solubility at 40 h ([4]; thermodynamic from solid, at 25° C., calculated as free base, after 40 hours of suspension equilibration, HPLC): 24.2 mg/mL

Source: patent US9303036B2, “Crystalline asenapine hydrochloride salt forms” (Sandoz AG, priority 2011, dated 2016)
